# Data taken from patent publication US11661582B2, “Method for producing sinoatrial node cells (pacemaker cells) from stem cells, and use of the produced sinoatrial node cells” (UNIVERSITAET ROSTOCK, priority 2013, dated 2023).
# “Also recorded” adds a separate entry of the source.
# How the values were obtained:
# [1] = system: murine ES cells; conditions: literature [9]; cited from earlier work
# [2] = system: cells derived from iSABs (Myh6-TBX3 cells); assay: Ca2+ imaging (Fluo-4) of spontaneous Ca2+ transients and SR Ca2+ stores in iSAB-derived cells; format: cell-based, murine; conditions: for frequency of spontaneous Ca2+ transients: 5 μM ZD 7288, 1 μM mibefradil, 1 μM nifedipine, 28° C.; for diastolic Ca2+ level: caffeine 10 mM, thapsigargin 2 μM
# [3] = system: sinoatrial node cells produced in vitro from stem cells; assay: Beat frequency of stem-cell-derived sinoatrial node cells contacted with pharmaceuticals; format: cell-based, murine; conditions: sinoatrial node cells of the invention contacted with pharmaceuticals
# [4] = system: cells derived from aCaBs; assay: Ca2+ imaging (Fluo-4) of SR Ca2+ stores in aCaB-derived control cells; format: cell-based, murine
# [5] = system: isolated Tbx3-programmed cells (SA/AV pacemaker-type); assay: Single-cell patch-clamp, action potential rate of Tbx3-programmed cells; format: cell-based, murine; conditions: 37° C.
# Method: For the further validation of the functionality and determination of the proportions of the subtypes of the cardiomyocytes, the electrophysiological properties were analyzed by the single-cell patch-clamp technique and the measurement of the density of the HCN (or funny) channels on day 18 of the differentiation as described [14] [16].
# Spontaneous action potentials and currents of contracting cardiomyocytes were recorded at 37° C. in the perforated patch configuration using a MultiClamp 700B amplifier and pClamp10 software (Molecular Devices, Union City, USA). The offline data analysis was conducted with Clampfit software (Molecular Devices, Union City, USA) or by means of Origin 6.0 software (Microcal, Northampton, USA). […] The extracellular (bath) solution contained: 140 mM NaCl, 5.4 mM KCl, 1 mM MgCl2, 1.8 mM CaCl2, 5 mM HEPES, 5.5 mM glucose; the pH was adjusted to 7.4 with NaOH. For better recording of the If, in some cases, 2 mM BaCl2 and 0.3 mM CdCl2 were added to the bath solution in order to block IKl and ICa. If was measured by stepwise change proceeding from a hold potential of −40 mV to test potentials between −130 mV and +20 mV. The current amplitude after 3 seconds during the −130 mV pulse was divided by the cell capacitance in order to determine the current (If) density. To determine the If activation kinetics, the time constant of the activation (τ) was obtained by fitting the current trace of the −130 mV step after the initial delay with the sum of two exponential functions y=A1e1 ^−x/τ)+A2e2^(−x/τ), where τ1 and τ2 are fast and slow time constants for the activation; τ1 is accordingly referred to as τ, since the slow component (A2) of the HCN channel activation is generally <10% of the current amplitude. Isoproterenol or carbachol (Sigma, Taufkirchen, Germany) was dissolved directly in the bath solution on the day of the experiment and the cells were administered by means of a rapid exchange superfusion system. APs were recorded with a 10 kHz sampling rate. The analyses were conducted on the original traces. […]
# [6] = system: cells originating from iSAB; assay: Single-cell patch-clamp, action potential rate of cells originating from iSAB; format: cell-based, murine; conditions: for AP rate: patch-clamp, 37° C.
# Method: Spontaneous action potentials and currents of contracting cardiomyocytes were recorded at 37° C. in the perforated patch configuration using a MultiClamp 700B amplifier and pClamp10 software (Molecular Devices, Union City, USA). The offline data analysis was conducted with Clampfit software (Molecular Devices, Union City, USA) or by means of Origin 6.0 software (Microcal, Northampton, USA). […] The extracellular (bath) solution contained: 140 mM NaCl, 5.4 mM KCl, 1 mM MgCl2, 1.8 mM CaCl2, 5 mM HEPES, 5.5 mM glucose; the pH was adjusted to 7.4 with NaOH. For better recording of the If, in some cases, 2 mM BaCl2 and 0.3 mM CdCl2 were added to the bath solution in order to block IKl and ICa. If was measured by stepwise change proceeding from a hold potential of −40 mV to test potentials between −130 mV and +20 mV. The current amplitude after 3 seconds during the −130 mV pulse was divided by the cell capacitance in order to determine the current (If) density. To determine the If activation kinetics, the time constant of the activation (τ) was obtained by fitting the current trace of the −130 mV step after the initial delay with the sum of two exponential functions y=A1e1 ^−x/τ)+A2e2^(−x/τ), where τ1 and τ2 are fast and slow time constants for the activation; τ1 is accordingly referred to as τ, since the slow component (A2) of the HCN channel activation is generally <10% of the current amplitude. Isoproterenol or carbachol (Sigma, Taufkirchen, Germany) was dissolved directly in the bath solution on the day of the experiment and the cells were administered by means of a rapid exchange superfusion system. APs were recorded with a 10 kHz sampling rate. The analyses were conducted on the original traces. The inclination/slope of the linear fit of the distance from the MDP to the potential threshold is the DDR; the AP duration is the time from the threshold potential to the MDP.
compound,measurement,setting,value
CCn1c(=O)[nH]c2ccccc21 [EBIO],formation of node cells from murine ES cells,[1],enhances the formation of node cells
CCN(c1ccccc1)c1cc(=NC)n(C)c(C)n1.Cl [ZD 7288],frequency of spontaneous Ca2+ transients,[2],reduced the frequency of the Ca^2+ transients
same,frequency of spontaneous Ca2+ transients,[2]; listed as ZD7288,decrease significantly
same,beat frequency,[3],significant reduction in beat frequency
Cn1c(=O)c2c(ncn2C)n(C)c1=O [caffeine],caffeine-induced effect on SR-Ca2+ release,"[4]; caffeine 10 mM, aCaB-derived cells",No similar caffeine-induced effect
same,"caffeine-induced Ca2+ peak, sarcolemmal Ca2+ influx blocked","[2]; blockage of Na+/Ca2+ exchanger and Ca2+ channels, iSAB-derived cells compared to aCaB-derived cells",four times greater; also recorded: large caffeine peak
same,diastolic Ca2+ level,[2]; iSAB-derived cells,increased the diastolic Ca^2+ level
C[N+](C)(C)CCOC(N)=O [carbachol],AP rate,[5],slowed
same,beat frequency,[3],significant reduction in beat frequency
same,AP rate,[6],slowed
CC(C)NCC(O)c1ccc(O)c(O)c1 (stereo not drawn) [isoproterenol],AP rate,[5],acceleration in the AP rate
same,AP rate,[5]; listed as isoprotenerol,accelerated
same,beat frequency,[3],increase in beat frequency
same,AP rate,[6],accelerated
same,beat frequencies in response to isoprotenerol,[6]; range up to,up to 560 bpm
COCC(=O)O[C@]1(CCN(C)CCCc2nc3ccccc3[nH]2)CCc2cc(F)ccc2[C@@H]1C(C)C [mibefradil],frequency of spontaneous Ca2+ transients,[2],moderate decrease
C/C=C(/C)C(=O)O[C@H]1C(C)=C2[C@H]([C@@H]1OC(=O)CCCCCCC)[C@@](C)(OC(C)=O)C[C@H](OC(=O)CCC)[C@@]1(O)[C@H]2OC(=O)[C@@]1(C)O [thapsigargin],caffeine Ca2+ peak with and without SERCA inhibition,[4]; control cells (aCaB-derived),remained identical
same,intracellular Ca2+ accumulation with SERCA inhibition,[4]; control cells (aCaB-derived),impossible to detect any intracellular Ca^2+ accumulation
same,rate of intracellular Ca2+ accumulation with SERCA inhibition,"[2]; Na+/Ca2+ exchanger blocked plus SERCA inhibition, vs. no SERCA inhibition, iSAB-derived cells",fourfold increase
same,diastolic Ca2+ level,[2]; iSAB-derived cells,increase in the Ca^2+ diastolic level; also recorded: increased diastolic Ca^2+ levels
same,reduction of caffeine Ca2+ peak (factor),"[2]; caffeine added 5 min after incubation with thapsigargin, iSAB-derived cells",4
